Our source for the IC50 values is patent publication US20230097157A1, “Bicyclic Pyridin-2-one and pyrimidin-4-one Derivatives Useful As a Factor XIa Inhibitors” (Janssen Pharmaceutica NV, priority 2021, published 2023).

Where two headings read alike, the source gives them in different places.

The target of one assay is Factor XIa (Homo sapiens, UniProt P03951). The assay can be described thus: Factor XIa inhibition assay (FLINT) utilizing a fluorophore-quencher pair peptide substrate 5Fam-[…]-K5Tamra. It counts as biochemical. The following applies: kinetic (KIN) reads, read-out: FXIa KIN Inh IC50. The method in brief: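 FXIa was preincubated with compound for 30 min at room temperature in Tris pH 7.5 buffer containing CaCl2, BSA and CHAPS, then reacted with 15 μM quenched 5Fam/Tamra peptide substrate. Fluorescence (485/520 nm) was read kinetically every 5 min for 30 min.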
Sequence of Factor XIa (P03951 388-625 limits assumed): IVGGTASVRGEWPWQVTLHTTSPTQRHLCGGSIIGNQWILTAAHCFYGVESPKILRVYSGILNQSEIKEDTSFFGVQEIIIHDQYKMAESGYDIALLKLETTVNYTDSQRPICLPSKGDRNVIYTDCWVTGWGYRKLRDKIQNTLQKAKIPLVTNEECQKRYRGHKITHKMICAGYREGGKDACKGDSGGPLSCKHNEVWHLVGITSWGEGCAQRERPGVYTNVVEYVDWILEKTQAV
Sequence of Factor XIa (P03951 19-387 partner limits assumed): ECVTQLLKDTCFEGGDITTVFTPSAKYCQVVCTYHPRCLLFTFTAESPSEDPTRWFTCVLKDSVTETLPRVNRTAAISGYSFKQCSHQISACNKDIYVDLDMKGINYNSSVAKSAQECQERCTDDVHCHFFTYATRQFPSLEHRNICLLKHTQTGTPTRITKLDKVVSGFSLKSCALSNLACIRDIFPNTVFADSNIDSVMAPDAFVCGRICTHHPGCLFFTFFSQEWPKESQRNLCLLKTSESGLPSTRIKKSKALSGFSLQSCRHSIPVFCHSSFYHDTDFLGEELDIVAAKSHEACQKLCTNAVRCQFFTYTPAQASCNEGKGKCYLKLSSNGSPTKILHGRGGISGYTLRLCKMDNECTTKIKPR

In the next assay the target is human plasma kallikrein (Homo sapiens, UniProt P03952). The assay can be described thus: Kallikrein inhibition assay (FLINT) utilizing a quenched AMC peptide substrate Z-Gly-Pro-Arg-AMC. The following applies: kinetic (KIN) reads, read-out: Kallikrein KIN Inh IC50. It counts as biochemical. The method in brief: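 Human plasma kallikrein (2 nM final) pre-incubated 30 min with compound (11-point 3-fold series, top 1 μM, 2% DMSO), then 50 μM Z-Gly-Pro-Arg-AMC added. Buffer 50 mM Tris pH 7.5, 100 mM NaCl, 5 mM CaCl2, BSA, CHAPS. AMC fluorescence (340/440 nm) read kinetically over 30 min at room temperature, IC50 by 4-parameter logistic fit.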
Sequence of human plasma kallikrein (P03952 391-638 limits assumed): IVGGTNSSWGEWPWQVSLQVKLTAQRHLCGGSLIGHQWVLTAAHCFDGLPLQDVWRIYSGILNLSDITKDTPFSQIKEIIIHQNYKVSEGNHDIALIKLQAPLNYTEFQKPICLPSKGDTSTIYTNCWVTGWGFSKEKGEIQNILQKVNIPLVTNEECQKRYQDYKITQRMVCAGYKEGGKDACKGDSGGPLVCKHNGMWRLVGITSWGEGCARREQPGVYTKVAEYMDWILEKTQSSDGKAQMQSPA
Sequence of human plasma kallikrein (P03952 20-390 partner limits assumed): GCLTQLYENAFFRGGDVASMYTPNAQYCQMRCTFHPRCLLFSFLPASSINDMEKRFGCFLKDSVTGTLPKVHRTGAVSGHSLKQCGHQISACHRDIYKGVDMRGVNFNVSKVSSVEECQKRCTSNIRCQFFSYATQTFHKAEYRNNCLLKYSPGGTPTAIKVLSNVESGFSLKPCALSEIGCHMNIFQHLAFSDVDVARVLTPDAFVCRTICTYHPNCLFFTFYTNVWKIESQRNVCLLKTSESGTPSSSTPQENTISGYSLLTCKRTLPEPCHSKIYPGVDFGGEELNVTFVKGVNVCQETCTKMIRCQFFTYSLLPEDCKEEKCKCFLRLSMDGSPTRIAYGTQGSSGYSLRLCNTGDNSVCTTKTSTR

What is called IC50 is the concentration at which inhibition is half-maximal. As for `C[C@H]1C[C@H](c2ncc(-c3cn[nH]c3)[nH]2)n2c1nc(-c1c(-n3cnnn3)ccc(Cl)c1F)cc2=O` (stereo in doubt) [Example 109, (6*R,8*S)-6-(5-(1H-Pyrazol-4-yl)-1H-imidazol-2-yl)-2-(3-chloro-2-fluoro-6-(1H-tetrazol-1-yl)phenyl)-8-methyl-7,8-dihydropyrrolo[1,2-a]pyrimidin-4(6H)-one], the IC50 on Factor XIa (unit μM) and on human plasma kallikrein (unit μM) was over 10 µM throughout.
Take `C[C@@H]1C[C@@H](c2ncc(-c3cn[nH]c3)[nH]2)n2c1nc(-c1c(-n3cnnn3)ccc(Cl)c1F)cc2=O` (stereo in doubt) [Example 111, (6*S,8*R)-6-(5-(1H-Pyrazol-4-yl)-1H-imidazol-2-yl)-2-(3-chloro-2-fluoro-6-(1H-tetrazol-1-yl)phenyl)-8-methyl-7,8-dihydropyrrolo[1,2-a]pyrimidin-4(6H)-one]: the values for the IC50 at Factor XIa (values in nM) and at human plasma kallikrein (values in nM) were 0.0226 µM and 0.145 µM, respectively.
For `C[C@@H]1C[C@H](c2ncc(-c3ccc4c(c3)CC(=O)N4)[nH]2)n2c1nc(-c1c(-n3cnnn3)ccc(Cl)c1F)cc2=O` (stereo in doubt) [Example 112, (6*R,8*R)-2-(3-Chloro-2-fluoro-6-(1H-tetrazol-1-yl)phenyl)-8-methyl-6-(5-(2-oxoindolin-5-yl)-1H-imidazol-2-yl)-7,8-dihydropyrrolo[1,2-a]pyrimidin-4(6H)-one], the half-inhibitory concentration (IC50) on Factor XIa (values in nM) stood at 0.0016 µM; on human plasma kallikrein (values in nM) it was 0.0078 µM.
On the same counts, the results for `C[C@H]1C[C@@H](c2ncc(-c3ccc4c(c3)CC(=O)N4)[nH]2)n2c1nc(-c1c(-n3cnnn3)ccc(Cl)c1F)cc2=O` (stereo in doubt) [Example 113, (6*S,8*S)-2-(3-Chloro-2-fluoro-6-(1H-tetrazol-1-yl)phenyl)-8-methyl-6-(5-(2-oxoindolin-5-yl)-1H-imidazol-2-yl)-7,8-dihydropyrrolo[1,2-a]pyrimidin-4(6H)-one] are 0.0007 µM and 0.0168 µM.
On the same counts, the results for `C[C@@H]1C[C@H](c2ncc(-c3cnc(N)nc3)[nH]2)n2c1nc(-c1c(-n3cnnn3)ccc(Cl)c1F)cc2=O` (stereo in doubt) [Example 114, (6*R,8*R)-6-(5-(2-Aminopyrimidin-5-yl)-1H-imidazol-2-yl)-2-(3-chloro-2-fluoro-6-(1H-tetrazol-1-yl)phenyl)-8-methyl-7,8-dihydropyrrolo[1,2-a]pyrimidin-4(6H)-one] are 0.111 µM and 0.284 µM.
As to `COC(=O)Nc1ccc(-c2cnc([C@H]3C[C@H](C)c4nc(-c5c(-n6cnnn6)ccc(Cl)c5F)cc(=O)n43)[nH]2)cn1` (stereo in doubt) [Example 115, methyl (5-(2-((6R*,8S*)-2-(3-Chloro-2-fluoro-6-(1H-tetrazol-1-yl)phenyl)-8-methyl-4-oxo-4,6,7,8-tetrahydropyrrolo[1,2-a]pyrimidin-6-yl)-1H-imidazol-5-yl)pyridin-2-yl)carbamate], the IC50 on Factor XIa (values in nM) is 0.247 µM; on human plasma kallikrein (unit μM), 6 µM.
In the case of `COC(=O)Nc1ccc(-c2cnc([C@@H]3C[C@H](C)c4nc(-c5c(-n6cnnn6)ccc(Cl)c5F)cc(=O)n43)[nH]2)cn1` (stereo in doubt) [Example 116, Methyl (5-(2-((6*S,8*S)-2-(3-Chloro-2-fluoro-6-(1H-tetrazol-1-yl)phenyl)-8-methyl-4-oxo-4,6,7,8-tetrahydropyrrolo[1,2-a]pyrimidin-6-yl)-1H-imidazol-5-yl)pyridin-2-yl)carbamate], the IC50 amounted to 0.0012 µM at Factor XIa (values in nM) and 0.0268 µM at human plasma kallikrein (values in nM).
With `COC(=O)Nc1ccc(-c2cnc([C@H]3C[C@@H](C)c4nc(-c5c(-n6cnnn6)ccc(Cl)c5F)cc(=O)n43)[nH]2)cn1` (stereo in doubt) [Example 117, Methyl (5-(2-((6*R,8*R)-2-(3-Chloro-2-fluoro-6-(1H-tetrazol-1-yl)phenyl)-8-methyl-4-oxo-4,6,7,8-tetrahydropyrrolo[1,2-a]pyrimidin-6-yl)-1H-imidazol-5-yl)pyridin-2-yl)carbamate], the IC50 at Factor XIa (unit μM) is 6.1 µM; on human plasma kallikrein (unit μM), over 10 µM.
For `COC(=O)Nc1ccc(-c2cnc([C@@H]3C[C@@H](C)c4nc(-c5c(-n6cnnn6)ccc(Cl)c5F)cc(=O)n43)[nH]2)cn1` (stereo in doubt) [Example 118, Methyl (5-(2-((6*S,8*R)-2-(3-Chloro-2-fluoro-6-(1H-tetrazol-1-yl)phenyl)-8-methyl-4-oxo-4,6,7,8-tetrahydropyrrolo[1,2-a]pyrimidin-6-yl)-1H-imidazol-5-yl)pyridin-2-yl)carbamate], the IC50 at Factor XIa (values in nM) turned out to be 0.0079 µM; on human plasma kallikrein (values in nM) it was 0.015 µM.
On the same counts, the results for `C[C@H]1C[C@@H](c2ncc(-c3cnc(N)nc3)[nH]2)n2c1nc(-c1c(-n3cnnn3)ccc(Cl)c1F)cc2=O` (stereo in doubt) [Example 119, (6*S,8*S)-6-(5-(2-Aminopyrimidin-5-yl)-1H-imidazol-2-yl)-2-(3-chloro-2-fluoro-6-(1H-tetrazol-1-yl)phenyl)-8-methyl-7,8-dihydropyrrolo[1,2-a]pyrimidin-4(6H)-one] are 0.0087 µM and 0.287 µM.
For `C[C@@H]1C[C@H](c2ncc(-c3ccc(NC(=O)C4CC4)nc3)[nH]2)n2c1nc(-c1c(-n3cnnn3)ccc(Cl)c1F)cc2=O` (stereo in doubt) [Example 120, N-(5-(2-((6*R,8*R)-2-(3-Chloro-2-fluoro-6-(1H-tetrazol-1-yl)phenyl)-8-methyl-4-oxo-4,6,7,8-tetrahydropyrrolo[1,2-a]pyrimidin-6-yl)-1H-imidazol-5-yl)pyridin-2-yl)cyclopropanecarboxamide], the IC50 at Factor XIa (values in nM) was found to be 0.0128 µM; on human plasma kallikrein (values in nM) it was 0.0112 µM.
On to `C[C@H]1C[C@H](c2ncc(-c3ccc(NC(=O)C4CC4)nc3)[nH]2)n2c1nc(-c1c(-n3cnnn3)ccc(Cl)c1F)cc2=O` (stereo in doubt) [Example 121, N-(5-(2-((6*R,8*S)-2-(3-Chloro-2-fluoro-6-(1H-tetrazol-1-yl)phenyl)-8-methyl-4-oxo-4,6,7,8-tetrahydropyrrolo[1,2-a]pyrimidin-6-yl)-1H-imidazol-5-yl)pyridin-2-yl)cyclopropanecarboxamide], for which the IC50 at Factor XIa (values in nM) worked out at 0.675 µM; at human plasma kallikrein (unit μM), 4.8 µM.
As for `C[C@@H]1C[C@@H](c2ncc(-c3ccc(NC(=O)C4CC4)nc3)[nH]2)n2c1nc(-c1c(-n3cnnn3)ccc(Cl)c1F)cc2=O` (stereo in doubt) [Example 122, N-(5-(2-((6*S,8*R)-2-(3-Chloro-2-fluoro-6-(1H-tetrazol-1-yl)phenyl)-8-methyl-4-oxo-4,6,7,8-tetrahydropyrrolo[1,2-a]pyrimidin-6-yl)-1H-imidazol-5-yl)pyridin-2-yl)cyclopropanecarboxamide], the figures for the IC50 at Factor XIa (values in nM) and on human plasma kallikrein (unit μM) were 0.095 µM and 5.6 µM, respectively.
With `C[C@H]1C[C@@H](c2ncc(-c3ccc(NC(=O)C4CC4)nc3)[nH]2)n2c1nc(-c1c(-n3cnnn3)ccc(Cl)c1F)cc2=O` (stereo in doubt) [Example 123, N-(5-(2-((6*S,8*S)-2-(3-Chloro-2-fluoro-6-(1H-tetrazol-1-yl)phenyl)-8-methyl-4-oxo-4,6,7,8-tetrahydropyrrolo[1,2-a]pyrimidin-6-yl)-1H-imidazol-5-yl)pyridin-2-yl)cyclopropanecarboxamide], the IC50 at Factor XIa (values in nM) was 0.0031 µM; at human plasma kallikrein (values in nM), 0.0175 µM.
